Source: US11866450B2, “Modulators of Cystic Fibrosis Transmembrane Conductance regulator, pharmaceutical compositions, methods of treatment, and process for making the modulators” (priority 2018, dated 2024)

Molecular target: CFTR-mediated chloride transport (Homo sapiens, UniProt P13569)
Format: cell-based
Conditions: enteroid cells incubated with test compound 18-24 hours, acute 10 μM forskolin and 300 nM Compound III; for Max. Activity: % of chloride transport with 3 μM Compound A, 3 μM Compound II and 300 nM acute Compound III triple combination control
How it was run: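 Membrane-potential fluorescence AUC over 15 min quantified CFTR chloride transport after acute forskolin (10 μM), IBMX (100 μM) and Compound III (300 nM) in chloride-free buffer. Human enteroid cells were pretreated with compound for 18–24 h; % Activity is relative to 3 μM Compound A + 3 μM Compound II + 300 nM Compound III.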

Chain of CFTR-mediated chloride transport (P13569 whole entry, looked up): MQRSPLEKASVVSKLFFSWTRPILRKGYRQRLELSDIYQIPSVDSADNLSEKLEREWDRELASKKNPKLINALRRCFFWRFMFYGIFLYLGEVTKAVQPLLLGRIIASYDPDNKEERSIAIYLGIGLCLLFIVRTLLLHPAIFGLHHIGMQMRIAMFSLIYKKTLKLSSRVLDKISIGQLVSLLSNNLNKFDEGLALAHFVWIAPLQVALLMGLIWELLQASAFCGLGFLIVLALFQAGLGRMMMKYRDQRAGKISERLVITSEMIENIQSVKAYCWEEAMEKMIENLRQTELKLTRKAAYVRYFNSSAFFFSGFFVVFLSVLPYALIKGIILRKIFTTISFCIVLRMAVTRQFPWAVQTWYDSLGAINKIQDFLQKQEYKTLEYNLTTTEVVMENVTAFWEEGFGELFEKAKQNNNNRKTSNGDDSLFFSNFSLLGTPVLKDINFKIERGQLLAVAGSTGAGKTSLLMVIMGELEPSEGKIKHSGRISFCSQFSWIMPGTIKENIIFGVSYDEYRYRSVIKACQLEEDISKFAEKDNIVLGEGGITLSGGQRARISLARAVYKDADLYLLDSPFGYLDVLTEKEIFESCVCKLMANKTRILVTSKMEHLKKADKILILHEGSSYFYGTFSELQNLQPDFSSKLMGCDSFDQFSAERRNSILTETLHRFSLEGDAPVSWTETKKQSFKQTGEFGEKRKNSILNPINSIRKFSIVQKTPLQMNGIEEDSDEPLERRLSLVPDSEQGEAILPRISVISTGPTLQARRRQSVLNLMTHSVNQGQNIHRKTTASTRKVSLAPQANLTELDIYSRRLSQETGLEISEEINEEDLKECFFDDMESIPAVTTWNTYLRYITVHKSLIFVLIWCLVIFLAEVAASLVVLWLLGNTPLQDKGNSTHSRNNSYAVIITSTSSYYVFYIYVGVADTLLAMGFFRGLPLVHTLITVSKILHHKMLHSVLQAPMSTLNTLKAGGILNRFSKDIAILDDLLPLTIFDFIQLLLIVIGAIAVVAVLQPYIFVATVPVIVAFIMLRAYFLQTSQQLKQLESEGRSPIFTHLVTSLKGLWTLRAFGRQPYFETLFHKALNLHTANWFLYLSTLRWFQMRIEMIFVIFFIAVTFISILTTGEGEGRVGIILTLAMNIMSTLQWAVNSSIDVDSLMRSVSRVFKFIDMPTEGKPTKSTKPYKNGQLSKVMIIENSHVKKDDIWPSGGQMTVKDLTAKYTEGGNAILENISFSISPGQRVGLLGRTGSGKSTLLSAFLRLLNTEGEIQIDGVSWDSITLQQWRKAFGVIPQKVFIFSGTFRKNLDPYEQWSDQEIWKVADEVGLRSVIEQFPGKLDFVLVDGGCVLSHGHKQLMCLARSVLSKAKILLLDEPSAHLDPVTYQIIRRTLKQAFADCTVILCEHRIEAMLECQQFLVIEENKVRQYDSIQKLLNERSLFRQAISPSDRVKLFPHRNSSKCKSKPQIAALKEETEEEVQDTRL

Row | SMILES | EC50 [nM] | Max. Activity
1 | CC1(C)C[C@H]2CCNc3cccc(n3)S(=O)(=O)NC(=O)c3ccc(-n4ccc(OCCC(C5CC5)C5CC5)n4)nc3N1C2 (single isomer, unassigned) [Compound 251, 11-[3-(3,3-dicyclopropylpropoxy)-1H-pyrazol-1-yl]-7,7-dimethyl-17λ^6-thia-2,8,10,16,22-pentaazatetracyclo[16.3.1.15,8.09,14]tricosa-1(22),9,11,13,18,20-hexaene-15,17,17-trione] | < 1000 | ++ (++ is 30-60%)
2 | CN1CCC[C@@H]2CCC(C)(C)N2c2nc(-n3ccc(OCCC4(C(F)(F)F)CC4)n3)ccc2C(=O)NS(=O)(=O)c2cccc1n2 [Compound 11, (15R)-12,12,19-trimethyl-8-(3-{2-[1-(trifluoromethyl)cyclopropyl]ethoxy}-1H-pyrazol-1-yl)-2λ^6-thia-3,9,11,19,24-pentaazatetracyclo[18.3.1.05,10.011,15]tetracosa-1(24),5(10),6,8,20,22-hexaene-2,2,4-trione] | < 1000 | +++ (+++ is >60%)
3 | CC1(C)C[C@H]2CCCNc3cccc(n3)S(=O)(=O)NC(=O)c3ccc(-n4ccc(OCC5(C(F)(F)F)CC5)n4)nc3N1C2 (single isomer, unassigned) [Compound 22, 12,12-dimethyl-8-(3-{[1-(trifluoromethyl)cyclopropyl]methoxy}-1H-pyrazol-1-yl)-2λ^6-thia-3,9,11,18,23-pentaazatetracyclo[17.3.1.111,14.05,10]tetracosa-1(23),5(10),6,8,19,21-hexaene-2,2,4-trione] | < 1000 | +++ (+++ is >60%)
4 | CC1(C)C[C@H]2CCCCn3ccc(n3)S(=O)(=O)NC(=O)c3ccc(-n4ccc(OCCCC5(C(F)(F)F)CC5)n4)nc3N1C2 (single isomer, unassigned) [Compound 276, 21,21-dimethyl-4-(3-{3-[1-(trifluoromethyl)cyclopropyl]propoxy}-1H-pyrazol-1-yl)-10λ^6-thia-1,3,9,14,23-pentaazatetracyclo[17.2.1.111,14.02,7]tricosa-2,4,6,11(23),12-pentaene-8,10,10-trione] | < 1000 | ++ (++ is 30-60%)
5 | Cc1cn2nc1S(=O)(=O)NC(=O)c1ccc(-n3ccc(OCCC(C4CC4)C4CC4)n3)nc1N1C[C@H](CCC2)CC1(C)C (single isomer, unassigned) [Compound 202, 4-[3-(3,3-dicyclopropylpropoxy)-1H-pyrazol-1-yl]-12,20,20-trimethyl-10λ^6-thia-1,3,9,14,22-pentaazatetracyclo[16.2.1.111,14.02,7]docosa-2(7),3,5,11(22),12-pentaene-8,10,10-trione] | < 1000 | ++ (++ is 30-60%)
6 | CC1(C)C[C@H]2CCCCc3cccc(n3)S(=O)(=O)NC(=O)c3ccc(-n4ccc(OCCC5(C(F)(F)F)CC5)n4)nc3N1C2 (single isomer, unassigned) [Compound 87, 12,12-dimethyl-8-(3-{2-[1-(trifluoromethyl)cyclopropyl]ethoxy}-1H-pyrazol-1-yl)-2λ^6-thia-3,9,11,23-tetraazatetracyclo[17.3.1.111,14.05,10]tetracosa-1(23),5,7,9,19,21-hexaene-2,2,4-trione] | < 1000 | +++ (+++ is >60%)
7 | CC1(C)C[C@@H]2CCCNc3cccc(n3)S(=O)(=O)NC(=O)c3ccc(N4CCC(OCCC5(C(F)(F)F)CC5)C4=O)nc3N1C2 (stereo partly drawn) [Compound 158, (14S)-12,12-Dimethyl-8-(2-oxo-3-{2-[1-(trifluoromethyl)cyclopropyl]ethoxy}pyrrolidin-1-yl)-2λ^6-thia-3,9,11,18,23-pentaazatetracyclo[17.3.1.111,14.05,10]tetracosa-1(22),5,7,9,19(23),20-hexaene-2,2,4-trione] | < 1000 | +++ (+++ is >60%)
8 | CC1(C)C[C@H]2CCCNc3cccc(n3)S(=O)(=O)NC(=O)c3ccc(-n4ccc(OCC5C6(CC6)C56CC6)n4)nc3N1C2 (single isomer, unassigned) [Compound 107, 8-[3-({dispiro[2.0.2.1]heptan-7-yl}methoxy)-1H-pyrazol-1-yl]-12,12-dimethyl-2λ^6-thia-3,9,11,18,23-pentaazatetracyclo[17.3.1.111,14.05,10]tetracosa-1(22),5,7,9,19(23),20-hexaene-2,2,4-trione] | < 1000 | +++ (+++ is >60%)
9 | CC1(C)C[C@@H]2CCCNc3cccc(n3)S(=O)(=O)NC(=O)c3ccc(N4CC[C@H](CCC5C6(CC6)C56CC6)C4=O)nc3N1C2 (single isomer, unassigned) [Compound 178] | < 1000 | +++ (+++ is >60%)
10 | CC1(C)C[C@H]2CCCCNc3cccc(n3)S(=O)(=O)NC(=O)c3ccc(-n4ccc(OCCC5(C(F)(F)F)CC5)n4)nc3N1C2 (single isomer, unassigned) [Compound 30, 12,12-dimethyl-8-(3-{2-[1-(trifluoromethyl)cyclopropyl]ethoxy}-1H-pyrazol-1-yl)-2λ^6-thia-3,9,11,19,24-pentaazatetracyclo[18.3.1.111,14.05,10]pentacosa-1(23),5,7,9,20(24),21-hexaene-2,2,4-trione] | < 1000 | +++ (+++ is >60%)
11 | CC1(C)CC[C@H]2CCCNc3cccc(n3)S(=O)(=O)NC(=O)c3ccc(-n4ccc(OCC5C6(CC6)C56CC6)n4)nc3N21 (single isomer, unassigned) [Compound 125, 8-[3-({Dispiro[2.0.2.1]heptan-7-yl}methoxy)-1H-pyrazol-1-yl]-12,12-dimethyl-2λ^6-thia-3,9,11,19,24-pentaazatetracyclo[18.3.1.05,10.011,15]tetracosa-1(23),5(10),6,8,20(24),21-hexaene-2,2,4-trione] | < 1000 | + (+ is <30%)
12 | CC1(C)C[C@H]2C[C@@H](F)CNc3cccc(n3)S(=O)(=O)NC(=O)c3ccc(-n4ccc(OCCC5C6(CC6)C56CC6)n4)nc3N1C2 (single isomer, unassigned) [Compound 307, 8-[3-(2-{dispiro[2.0.2.1]heptan-7-yl}ethoxy)-1H-pyrazol-1-yl]-16-fluoro-12,12-dimethyl-2λ^6-thia-3,9,11,18,23-pentaazatetracyclo[17.3.1.111,14.05,10]tetracosa-1(22),5,7,9,19(23),20-hexaene-2,2,4-trione] | > 3000 | + (+ is <30%)
13 | Cc1ccc2nc1NCCC[C@H]1CN(c3nc(-n4ccc(OCCC5(C(F)(F)F)CC5)n4)ccc3C(=O)NS2(=O)=O)C(C)(C)C1 (single isomer, unassigned) [Compound 115, 12,12,20-trimethyl-8-(3-{2-[1-(trifluoromethyl)cyclopropyl]ethoxy}-1H-pyrazol-1-yl)-2λ^6-thia-3,9,11,18,23-pentaazatetracyclo[17.3.1.111,14.05,10]tetracosa-1(23),5(10),6,8,19,21-hexaene-2,2,4-trione] | < 1000 | +++ (+++ is >60%)
14 | CC1(C)C[C@@H]2CCCNc3cccc(n3)S(=O)(=O)NC(=O)c3ccc(N4CCC5(CCCCC5)C4=O)nc3N1C2 [Compound 222, (14S)-12,12-dimethyl-8-{1-oxo-2-azaspiro[4.5]decan-2-yl}-2λ^6-thia-3,9,11,18,23-pentaazatetracyclo[17.3.1.111,14.05,10]tetracosa-1(22),5,7,9,19(23),20-hexaene-2,2,4-trione] | < 1000 | ++ (++ is 30-60%)
